This is an account of results in patent US20120251528A1, “Non-Human Mammal Model Of Human Hematopoietic Cancer” (priority 2009, published 2012).

One series relates to GFP+ leukemic cells. Kind of series: Combinatorial treatment of Alemtuzumab and cyclophosphamide in secondary GFP/myc/bcl mice: GFP+ cells per organ. To be noted: 9 days after beginning of treatment; for effect on the leukemia in the bone marrow: single treatment. The class given is in vivo, mouse. The protocol: Absolute number of GFP+leukemic cells per organ was assessed by FACS and absolute count calculation.
Cohorts of secondary recipients were generated and divided into treatment groups as described above.

Series [1] can be described thus: Alemtuzumab distribution in vivo, IVIS fluorometry. Also noted: species or system mouse. Conditions: 24 h; for tissue distribution of fluorescent signal (spleen, liver, bones): 5 mg/kg i.v. As for the experimental part:
High signal in dissected whole brain.
(§1) Mice were sacrificed after 24 h and imaged at an IVIS fluorometer. […] Organs were homogenized and cells from these organs were directly assessed for Alemtuzumab-AlexaFluor750 binding by flow cytometry.

A further series concerns GFP+ leukemia cells. Nature of the series: In vivo binding of GFP/myc/bcl cells by labeled Alemtuzumab, flow cytometry of homogenized organs. Also noted: species or system mouse. Conditions: 5 mg/kg, 24 h. As for the experimental part:
Organs were homogenized and antibody binding to cells detected by flow cytometry.
as §1
(In general: A flow cytometer gives signals particle by particle.)

The test system of series [2] is GFP/myc/bcl cells. Nature of the series: Cumulative survival of secondary GFP/myc/bcl mice, Alemtuzumab vs control. It counts as in vivo, mouse. Conditions: Log-rank test; FIG. 4C.
Method: (§3) Each mouse in a cohort of secondary mice was injected with ˜10^6 GFP+ cells from the same primary donor mouse. 18-20 days later, mice were divided into 2 groups, and stratified for the density of GFP+ cells found in their peripheral blood (i.e. having the same (or similar) number of GFP+ cells/uL of blood).
(§4) Two days after completing the course of treatment, several mice were euthanized and the number of GFP+ cells in various organs was determined.
Series [3] concerns GFP/myc/bcl cells. Nature of the series: Complement-dependent cytotoxicity (CDC) in vitro, Annexin-V-PE/7-AAD flow cytometry. It counts as cell-based, human. To be noted: 1-100 μg/ml, 48 h. As for the experimental part: Media were supplemented with human, murine BL6- as NSG-derived serum. Serum-free media and heat-inactivated serum served as control. Cell viability was assessed by Annexin-V-PE/7-AAD flow cytometry after 48 h.
(§2) Antibody-bound leukemic cells can also be killed by complement-mediated lysis.

For a further series, the system named is ALL-cells. Kind of series: Direct cytotoxic effects on ALL-cells in vitro. It counts as cell-based, human.
Excerpt: as §2

The subject of the next series is GMB cells. Nature of the series: Antibody-dependent cellular cytotoxicity with thioglycollate induced macrophages from NSG mice in vitro. It counts as cell-based, human. To be noted: for macrophage-mediated killing / lysis of leukemia cells: induced peritoneal NSG macrophages.
Excerpt: as §2

The subject of another series is leukemic cells. Nature of the series: Alemtuzumab treatment of macrophage-depleted (clodronate liposomes) tumor-bearing mice. It counts as in vivo, mouse. To be noted: treated 2 days after injection of clodronate liposomes.
For series [4], the system named is GFP/myc/bcl cells. To be noted: 5 mg/kg i.v. days 1, 4, 7, two days after completing treatment.
Method: Mice were treated 14 days after transplantation while showing leukemic phenotype. […] Response to treatment was assessed after 7 days, a leukemic burden was measured by flow cytometry and calculating absolute cell count per organ.
as §3, §4
For series [5], the system named is GFP/myc/bcl cells. Kind of series: F(ab)2 fragments of Alemtuzumab injected to secondary GFP/myc/bcl mice (Fc-dependent effects). The class given is in vivo, mouse. Conditions: injected day 14 after transplantation, vs Alemtuzumab control.
Excerpt: as §2

[6] abbreviates: listed as Alemtuzumab-AlexaFluor750.

“Also recorded” adds a separate entry of the source.

Regarding `O=P1(N(CCCl)CCCl)NCCCO1` (stereo not drawn) [cyclophosphamide], the “reduction of GFP+ cells found in the brain” value in the series on GFP+ leukemic cells (150 mg/kg i.p. days 1 and 2) is about 300 fold. Further, the “reduction of GFP+ cells in the peripheral blood” value with GFP+ leukemic cells (single agent) was “as effectively as the treatment using Alemtuzumab alone”. Also, the “effect on the leukemia in the bone marrow” value with GFP+ leukemic cells is given as “neither single treatment had much effect”.

For the compound “AlexaFluor750 labeled Alemtuzumab: Alemtuzumab labeled with AlexaFluor 750”, the “tissue distribution of fluorescent signal (spleen, liver, bones)” value in series [1] is “Intense staining of spleen, liver and bones”; in series [1] (listed as Labeled Alemtuzumab), “focused on spleen and bones”. The “fluorescent signal in dissected whole brain” value in [1] (i.v.) was “High signal”. Besides, the “antibody binding to GFP+ leukemia cells, bone marrow” value in the series with GFP+ leukemia cells is “increased AlexaFLuor750 signal”; in the series on GFP+ leukemia cells (setting [6]), “Strong antibody binding”. The “antibody binding to GFP+ leukemia cells, spleen” value is listed as “increased AlexaFLuor750 signal” in the series on GFP+ leukemia cells and “Strong antibody binding” with GFP+ leukemia cells (setting [6]). The “antibody binding to brain-derived leukemia cells” value with GFP+ leukemia cells was “no detection could be detected”; with GFP+ leukemia cells (setting [6]), “no specific binding”.

Turning to Alemtuzumab, the “survival vs PBS-treated control” value in the series on GFP/myc/bcl cells [2] was “survived significantly longer; also recorded: significant prolonged survival”. Moreover, the “complement-dependent cytotoxicity, human serum” value with GFP/myc/bcl cells [3] (media with human serum) was “detected in human serum”. The “complement-dependent cytotoxicity, murine sera” value in the series with GFP/myc/bcl cells [3] (media with murine BL6- or NSG-derived serum) is reported as “did not mediate Alemtuzumab mediated tumor cell killing; also recorded: not in murine sera”. Besides, the “direct cytotoxic effects on ALL-cells” value in the series with ALL-cells is listed as “no direct cytotoxic effects”. Moreover, the “time within which macrophages killed GMB cells” value in the series on GMB cells (NSG macrophages in the presence of antibody) is at most 13 h. For the same compound, the “macrophage-mediated killing / lysis of leukemia cells” value in the series with GMB cells was “capable of ALL-cell lysis”. Also, the “reduction of leukemic cells in the spleen of macrophage-depleted mice” value in the series with leukemic cells was “no reduction of leukemic cells in the spleen”. For the same compound, the “effect on GFP+ cells in the brain” value in the series on GFP+ leukemic cells (single agent) was “no effect”. In addition, the “effect on the leukemia in the bone marrow” value in the series on GFP+ leukemic cells is “neither single treatment had much effect”. The “number of GFP+ cells in bone marrow vs control mice” value in the series with GFP/myc/bcl cells [4] (bone marrow) is “approximately the same”. The “number of GFP+ cells in brain vs control mice” value in the series on GFP/myc/bcl cells [4] (brain) is given as “approximately the same”. Also, the “decrease of GFP+ cells in liver vs PBS” value in the series on GFP/myc/bcl cells [4] (liver) was about 400 fold. The “decrease of GFP+ cells in peripheral blood vs PBS” value with GFP/myc/bcl cells [4] (peripheral blood) is reported as about 30 fold. In addition, the “decrease of GFP+ cells in spleen vs PBS” value in the series with GFP/myc/bcl cells [4] (spleen) is given as about 3300 fold.

For the compound “F(ab)2 fragments of Alemtuzumab: pepsin-digested F(ab)2-fragments of Alemtuzumab lacking the Fc part”, the “macrophage-mediated killing / lysis of leukemia cells” value in the series on GMB cells is “no effect”; with GMB cells (listed as F(ab)2 fragments) it was “No GFP/myc/bcl-directed killing”. The “therapeutic effect in secondary GFP/myc/bcl mice” value is reported as “no therapeutic effects” with GFP/myc/bcl cells [5] and “no therapeutic effect” in the series with GFP/myc/bcl cells [5] (listed as F(ab)2-fragments of Alemtuzumab).
